Experimental data: patent publication US10420772B2, “Animal and human anti-trypanosomonal and anti-leishmania agents” (Celgene Corporation, priority 2016, dated 2019)

Columns and labels:
[1] = test system: STIB 719/ILRAD 560 T. vivax (drug sensitive) strain; assay: Ex vivo Alamar Blue 48 hrs drug sensitivity assay for T. vivax; type: cell-based; settings: Trypanosoma vivax, STIB719; STIB 719/ILRAD 560 T. vivax bloodstream form, ex vivo, Alamar Blue, 48 hrs; read-out: T. vivax Act.
Procedure: Ex vivo Alamar Blue48 hrs drug sensitivity assay for T. vivax. Compounds were tested ex vivo for chemotherapeutic efficacy against the STIB 719/ILRAD 560 T. vivax (drug sensitive) strain, using an Alamar Blue assay. Test compounds were prepared as 10 mg/mL DMSO stocks for each assay run. Compounds were assayed in at least three separate, independent test runs and an 11-point dilution curve was used to determine the IC50 values. Bloodstream form trypanosomes were propagated and harvested from a highly parasitaemic mouse (via cardiac puncture) and were incubated with test compounds for 45 hrs at 37° C. in a humidified atmosphere containing 5% CO2, supported in HMI media containing 20% bovine serum. Thereafter, 10 μL of Resazurin dye (12.5 mg in 100 mL of phosphate buffered saline, Sigma-Aldrich, Buchs, Switzerland) were added for an additional 3 hrs. Plates were then read using a fluorescent plate reader (Spectramax, Gemini XS, Bucher Biotec, Basel, Switzerland) using an excitation wavelength of 536 nm and an emission wavelength of 588 nm. Data points were averaged to generate sigmoidal dose-response curves and IC50 values were determined using Softmax Pro 5.2 software.

[2] = test system: IL3000 T. congolense (drug sensitive) strain; assay: In vitro Alamar Blue 72 hrs drug sensitivity assay for T. congolense; type: cell-based; settings: Trypanosoma congolense, IL3000 T. congolense bloodstream form, read-out: T. congo Act.
Procedure: In Vitro Alamar Blue 72 Hrs Drug Sensitivity Assay for T. Congolense. Compounds were tested in vitro for chemotherapeutic efficacy against the IL3000 T. congolense (drug sensitive) strain using an Alamar Blue assay. Test compounds were prepared as 10 mg/mL DMSO stocks for each assay run. Compounds were assayed in at least three separate, independent test runs and an 11-point dilution curve was used to determine the IC50 values. Bloodstream form trypanosomes were supported in HMI media containing 20% bovine serum and were incubated with test compounds for 69 hrs at 34° C. in a humidified atmosphere containing 5% CO2. Thereafter, 10 μL of Resazurin dye (12.5 mg in 100 mL of phosphate buffered saline, Sigma-Aldrich, Buchs, Switzerland) were added for an additional 3 hrs. Plates were then read using a fluorescent plate reader (Spectramax, Gemini XS, Bucher Biotec, Basel, Switzerland) using an excitation wavelength of 536 nm and an emission wavelength of 588 nm. Data points were averaged to generate sigmoidal dose-response curves and IC50 values were determined using Softmax Pro 5.2 software.

SMILES	IC50 [1] [µM]	IC50 [2] [µM]
CC1(Nc2ncc3nc(Nc4cncc(Cl)c4)n([C@H]4CC[C@@H](CN)CC4)c3n2)CCOCC1 [A-33, 9-((1s,4s)-4-(aminomethyl)cyclohexyl)-N8-(5-chloropyridin-3-yl)-N2-(4-methyltetrahydro-2H-pyran-4-yl)-9H-purine-2,8-diamine]	< 0.15	0.15 to 0.35
CC1(Nc2ncc3nc(Nc4cccc(Cl)c4)n(C4CC(N)C4)c3n2)CCOCC1 (stereo not drawn) [A-35, 9-(3-aminocyclobutyl)-N8-(3-chlorophenyl)-N2-(4-methyltetrahydro-2H-pyran-4-yl)-9H-purine-2,8-diamine]	< 0.15	< 0.15
CC(C)(C)Nc1ncc2nc(Nc3ccc(Cl)c(Cl)c3)n(C3CC(N)C3)c2n1 (stereo not drawn) [A-39, 9-(3-aminocyclobutyl)-N2-tert-butyl-N8-(3,4-dichlorophenyl)-9H-purine-2,8-diamine]	0.15 to 0.35	0.35 to 0.5
CC1(Nc2ncc3nc(Nc4cccc(Cl)c4)n([C@H]4CC[C@@H](CN5CCOCC5)CC4)c3n2)CCOCC1 [A-41, N8-(3-chlorophenyl)-N2-(4-methyltetrahydro-2H-pyran-4-yl)-9-((1s,4s)-4-(morpholinomethyl)cyclohexyl)-9H-purine-2,8-diamine]	0.35 to 0.5	< 0.15
CC1(Nc2ncc3nc(Nc4cc(C(F)(F)F)ccc4F)n([C@H]4CC[C@@H](CN)CC4)c3n2)CCOCC1 [A-42, 9-((1s,4s)-4-(aminomethyl)cyclohexyl)-N8-(2-fluoro-5-(trifluoromethyl)phenyl)-N2-(4-methyltetrahydro-2H-pyran-4-yl)-9H-purine-2,8-diamine]	< 0.15	< 0.15
CC1(Nc2ncc3nc(Nc4cccc(C(F)(F)F)n4)n([C@H]4CC[C@@H](CN)CC4)c3n2)CCOCC1 [A-45, 9-((1s,4s)-4-(aminomethyl)cyclohexyl)-N2-(4-methyltetrahydro-2H-pyran-4-yl)-N8-(6-(trifluoromethyl)pyridin-2-yl)-9H-purine-2,8-diamine]	0.15 to 0.35	0.15 to 0.35
CC(C)(C)Nc1ncc2nc(Nc3cc(Cl)cc(Cl)c3)n([C@H]3CC[C@@H](CN)CC3)c2n1 [A-48, 9-((1s,4s)-4-(aminomethyl)cyclohexyl)-N2-tert-butyl-N8-(3,5-dichlorophenyl)-9H-purine-2,8-diamine]	0.35 to 0.5	0.15 to 0.35
CC1(Nc2ncc3nc(Nc4cccc(Cl)c4)n([C@H]4CC[C@@H](CN)CC4)c3n2)CC1 [A-51, 9-((1s,4s)-4-(aminomethyl)cyclohexyl)-N8-(3-chlorophenyl)-N2-(1-methylcyclopropyl)-9H-purine-2,8-diamine]	< 0.15	< 0.15
CC(C)(C)Nc1ncc2nc(Nc3cccc(C#N)c3)n(C3CCC(N)CC3)c2n1 (stereo not drawn) [A-52, 3-(9-((1r,4r)-4-aminocyclohexyl)-2-(tert-butylamino)-9H-purin-8-ylamino)benzonitrile]	< 0.15	0.35 to 0.5
CC(C)(C)Nc1ncc2nc(Nc3cc(Cl)cc(C(F)(F)F)c3)n(C3CCC(N)CC3)c2n1 (stereo not drawn) [A-53, 9-((1r,4r)-4-aminocyclohexyl)-N2-tert-butyl-N8-(3-chloro-5-(trifluoromethyl)phenyl)-9H-purine-2,8-diamine]	0.15 to 0.35	0.15 to 0.35
CC(C)(CO)Nc1ncc2nc(Nc3cccc(Cl)c3)n(C3CCC(CN)CC3)c2n1 (stereo not drawn) [A-54, 2-(9-((1s,4s)-4-(aminomethyl)cyclohexyl)-8-(3-chlorophenylamino)-9H-purin-2-ylamino)-2-methylpropan-1-ol]	< 0.15	0.15 to 0.35
CC1(Nc2ncc3nc(Nc4cc(Cl)cc(C(F)(F)F)c4)n(C4CCC(CN)CC4)c3n2)CCC1 (stereo not drawn) [A-55, 9-((1s,4s)-4-(aminomethyl)cyclohexyl)-N8-(3-chloro-5-(trifluoromethyl)phenyl)-N2-(1-methylcyclobutyl)-9H-purine-2,8-diamine]	0.35 to 0.5	0.15 to 0.35
CNC[C@H]1CC[C@@H](n2c(Nc3cccc(C(F)(F)F)c3)nc3cnc(NC4(C)CCOCC4)nc32)CC1 [A-58, 9-((1s,4s)-4-((methylamino)methyl)cyclohexyl)-N2-(4-methyltetrahydro-2H-pyran-4-yl)-N8-(3-(trifluoromethyl)phenyl)-9H-purine-2,8-diamine]	< 0.15	< 0.15
CC1(Nc2ncc3nc(Nc4cc(C(F)(F)F)ccc4F)n(C4CCC(N)CC4)c3n2)CCOCC1 (stereo not drawn) [A-59, 9-(4-aminocyclohexyl)-N8-(2-fluoro-5-(trifluoromethyl)phenyl)-N2-(4-methyltetrahydro-2H-pyran-4-yl)-9H-purine-2,8-diamine]	< 0.15	0.15 to 0.35
CN(C)CC1CCC(n2c(Nc3cccc(Cl)c3F)nc3cnc(NC(C)(C)C)nc32)CC1 (stereo not drawn) [A-60, N2-tert-butyl-N8-(3-chloro-2-fluorophenyl)-9-((1s,4s)-4-((dimethylamino)methyl)cyclohexyl)-9H-purine-2,8-diamine]	< 0.15	< 0.15
CC1(Nc2ncc3nc(Nc4cc(C(F)(F)F)ccc4F)n(C4CCC(CN)CC4)c3n2)CCC1 (stereo not drawn) [A-61, 9-((1s,4s)-4-(aminomethyl)cyclohexyl)-N8-(2-fluoro-5-(trifluoromethyl)phenyl)-N2-(1-methylcyclobutyl)-9H-purine-2,8-diamine]	< 0.15	0.15 to 0.35
NC[C@H]1CC[C@@H](n2c(Nc3cccc(Cl)c3)nc3cnc(NC4CCOCC4)nc32)CC1 [B-1, 9-((1s,4s)-4-(aminomethyl)cyclohexyl)-N8-(3-chlorophenyl)-N2-(tetrahydro-2H-pyran-4-yl)-9H-purine-2,8-diamine]	0.35 to 0.5	0.15 to 0.35
NC1CCC(n2c(Nc3cccc(Cl)c3)nc3cnc(NC4CC4)nc32)CC1 (stereo not drawn) [B-2, 9-((1r,4r)-4-aminocyclohexyl)-N8-(3-chlorophenyl)-N2-cyclopropyl-9H-purine-2,8-diamine]	< 0.15	0.35 to 0.5
NC1CCC(n2c(Nc3cccc(Cl)c3)nc3cnc(NCC4CC4)nc32)CC1 (stereo not drawn) [B-3, 9-((1r,4r)-4-aminocyclohexyl)-N8-(3-chlorophenyl)-N2-(cyclopropylmethyl)-9H-purine-2,8-diamine]	0.35 to 0.5	0.35 to 0.5
NC1CCC(n2c(Nc3cccc(Cl)c3)nc3cnc(NCC(F)(F)F)nc32)CC1 (stereo not drawn) [B-4, 9-((1r,4r)-4-aminocyclohexyl)-N8-(3-chlorophenyl)-N2-(2,2,2-trifluoroethyl)-9H-purine-2,8-diamine]	< 0.15	0.35 to 0.5
CN(c1ncc2nc(Nc3cccc(Cl)c3)n([C@H]3CC[C@@H](CN)CC3)c2n1)C1CCOCC1 [B-5, 9-((1s,4s)-4-(aminomethyl)cyclohexyl)-N8-(3-chlorophenyl)-N2-methyl-N2-(tetrahydro-2H-pyran-4-yl)-9H-purine-2,8-diamine]	< 0.15	0.35 to 0.5
OCC1CCC(n2c(Nc3cccc(Cl)c3)nc3cnc(NC4CCOCC4)nc32)CC1 (stereo not drawn) [B-6, ((1s,4s)-4-(8-(3-chlorophenylamino)-2-(tetrahydro-2H-pyran-4-ylamino)-9H-purin-9-yl)cyclohexyl)methanol]	0.35 to 0.5	0.35 to 0.5
CN(C)c1ncc2nc(Nc3cccc(Cl)c3)n(C3CCC(CN)CC3)c2n1 (stereo not drawn) [B-7, 9-((1s,4s)-4-(aminomethyl)cyclohexyl)-N8-(3-chlorophenyl)-N2,N2-dimethyl-9H-purine-2,8-diamine]	< 0.15	0.35 to 0.5
CC1(C)CC(Nc2ncc3nc(Nc4cccc(Cl)c4)n([C@H]4CC[C@@H](CN)CC4)c3n2)CCO1 (stereo partly drawn) [B-8, 9-((1s,4s)-4-(aminomethyl)cyclohexyl)-N8-(3-chlorophenyl)-N2-(2,2-dimethyltetrahydro-2H-pyran-4-yl)-9H-purine-2,8-diamine]	< 0.15	0.15 to 0.35
CNc1ncc2nc(Nc3cccc(Cl)c3)n(C3CCC(CN)CC3)c2n1 (stereo not drawn) [B-9, 9-((1s,4s)-4-(aminomethyl)cyclohexyl)-N8-(3-chlorophenyl)-N2-methyl-9H-purine-2,8-diamine]	< 0.15	0.35 to 0.5
NCC1CCC(n2c(Nc3cccc(Cl)c3)nc3cnc(NCC(F)(F)F)nc32)CC1 (stereo not drawn) [B-10, 9-((1s,4s)-4-(aminomethyl)cyclohexyl)-N8-(3-chlorophenyl)-N2-(2,2,2-trifluoroethyl)-9H-purine-2,8-diamine]	< 0.15	0.35 to 0.5
CC1(O)CCC(Nc2ncc3nc(Nc4cccc(Cl)c4)n(C4CCC(CN)CC4)c3n2)CC1 (stereo not drawn) [B-11, 4-(9-((1s,4s)-4-(aminomethyl)cyclohexyl)-8-(3-chlorophenylamino)-9H-purin-2-ylamino)-1-methylcyclohexanol]	< 0.15	0.35 to 0.5
